Experimental data taken from patent US9187410B2, “Process for isolating tigecycline and tigecycline made therefrom” (Hovione Inter Limited, priority 2009, dated 2015).

Tests used:
Type in all cases: physicochemical
[1] = Modulated differential scanning calorimetry (mDSC/DSC) of amorphous tigecycline; conditions: unstressed sample; for glass transition temperature (Tg): mDSC, 25° C. to 300° C. at 3° C./min
Description: The DSC apparatus used was a DSC Q200 from TA Instruments, using the following settings: method—from 25° C. to 300° C. at 3° C./min; modulate +/−0.50° C. every 40 seconds. In addition to a higher Tg value, spray dried tigecycline also crystallizes and melts (after crossing the glass transition) at higher temperature than lyophilized tigecycline. By Tg we mean the critical temperature at which the material changes its behaviour from being ‘glassy’ to being ‘rubbery’. ‘Glassy’ in this context means hard and brittle (and therefore relatively easy to break), while ‘rubbery’ means elastic and flexible.

[2] = Dynamic Vapour Sorption (DVS) water uptake; conditions: 25° C.
Description: We also have performed Dynamic Vapour Sorption studies (DVS) and these studies have shown that samples of tigecycline isolated by spray drying and by lyophilzation have distinctive hygroscopic behavior. […] The DVS conditions were as follows: temperature-25° C.; equilibrium criteria 0.00% w/w every 10 min; maximum equilibrium time—120 min; start RH—5%; maximum RH—95%; steps—10%. A vapor sorption analyzer (VTI-SGA 100) was used. […] The difference in the water uptake between the two forms increases with RH for most of the isotherm. By RH we mean relative humidity, the amount of water vapor that exists in a gaseous mixture of air and water. At 45% humidity, the spray dried sample takes up 2.9% w/w water and lyophilized sample 3.9% w/w water. At 95% humidity, the difference is even more evident: the spray dried form takes up 22.6% w/w water and the lyophilized form 24.5% w/w water. The form obtained by lyophilization is more hygroscopic than the form obtained by spray drying.

[3] = DSC after fast stress conditions (oven at 100° C. for 24 hours); conditions: after 24 hours at 100° C.
Description: The DSC apparatus used was a DSC Q200 from TA Instruments, using the following settings: method—from 25° C. to 300° C. at 3° C./min; modulate +/−0.50° C. every 40 seconds. Spray dried tigecycline and lyophilized tigecycline were submitted to fast stress conditions by placing the samples in an oven at 100° C. for 24 hours. The reversible and total flow DSC curves for the stressed samples were then measured and the results are presented in FIG. 4 and FIG. 5 respectively.

Row | glass transition temperature (Tg) ([1]; listed as lyophilized compound of formula [1]) [°C] | water uptake ([2]; 45% humidity, listed as lyophilized sample) [% w/w] | water uptake ([2]; 95% humidity, listed as lyophilized form) [% w/w] | crystallization temperature after stress [3] [°C] | glass transition temperature after stress [3] [°C] | glass transition temperature (Tg) ([1]; listed as amorphous compound of formula [1] obtained by spray drying) [°C] | crystallisation temperature ([1]; total heat flow DSC) [°C] | water uptake ([2]; 45% humidity, listed as spray dried sample) [% w/w] | water uptake ([2]; 95% humidity, listed as spray dried form) [% w/w] | Compound
1 | 126 | 3.9 | 24.5 | – | – | – | – | – | – | CN(C)c1cc(NC(=O)CNC(C)(C)C)c(O)c2c1C[C@H]1C[C@H]3[C@H](N(C)C)C(O)=C(C(N)=O)C(=O)[C@@]3(O)C(O)=C1C2=O [lyophilized tigecycline, tigecycline]
2 | – | – | – | ≥ 154 | ≥ 143 | 129 | ≥ 146 | 2.9 | 22.6 | CN(C)c1cc(NC(=O)CNC(C)(C)C)c(O)c2c1C[C@H]1C[C@H]3[C@H](N(C)C)C(O)=C(C(N)=O)C(=O)[C@@]3(O)C(O)=C1C2=O [spray dried tigecycline, tigecycline]
